According to patent US6586403B1, “Treating allergic reactions and inflammatory responses with tri-and dipeptides” (Salpep Biotechnology, Inc., priority 2000, dated 2003):
Ends that are not written are not given here.

Legend:
CD16b [1] = experiment: PAF induced CD16b expression on human neutrophils detected by CD16a.FITC; type: cell-based; details: 10-11M peptide; PAF 10^-9M (FIG. 11)
Experimental: (§1) The expression of CD11b and CD16b on the surface of neutrophils are represented as the difference in the mean fluorescence intensity (MFI) measured in cells incubated in the presence of PAF alone and those incubated with 10-11M concentration of peptide and PAF. Many of the tripeptides reduced the expression of CD11b and CD16b on human neutrophils that had been stimulated with platelet activating factor (PAF; 10^-9M).
(§2) Leukocytes were isolated from the blood of normal healthy volunteers. The blood (20 ml) was brought to a final volume of 50 ml with cold lysis buffer (155 mM NH4Cl, 10 mM KHCO3, 1 mM disodium EDTA, pH 7.4). […]
(§3) Once isolated the neutrophils were prepared to a final concentration of […] in phosphate buffered saline (PBS). […] The supernatant is decanted off carefully and 300 μl of PBS is added to the neutrophils and cells are read with a Fluorescence Activated Cell Sorter (FACS).
(§4) The effects of the peptides on CD11b or CD16b expression were evaluated by determining the changes in mean fluorescence intensity (MFI) of cells incubated in the presence of peptide and PAF and the those incubated in presence of PAF alone, after subtracting the background (Control) MFI expressed in cells incubated with neither PAF nor a peptide. […]

sensitized rat ileum = experiment: Antigen induced contraction of the sensitized rat ileum (intestinal anaphylaxis in vitro); type: cell-based; details: 10 ig of peptide in bath, 10 min, then 1 mg OA (FIG. 1)
Experimental: The Biological Response. The addition of antigen (OA) induced a slow tonic contraction of the intestinal (ileal) segments which peaked within 2 to 3 minutes before slowly receding to the baseline tension over 4 to 5 minutes. Urecholine (URE) produced a rapid tonic contraction that reached its maximum in 10 to 15 seconds. […] When FEG was added to the bath the OA/URE ratio was only 0.12±0.04, or 44% of the control response.
Effects of C-terminus substitutions, N-terminus substitutions, aromatic substitution at position 1, and Asp substitution at position 2 in both L and D forms in FEG, and removal of the glycine on inhibition of intestinal anaphylaxis in vitro.
In this in vitro motility study analogues of the tripeptide FEG were examined for their inhibitory effects on an anaphylactic reaction provoked by antigen on intestinal segments isolated from ovalbumin sensitized rats. […] Four to six weeks following sensitization, the terminal ileum was excised and 2 cm sections were mounted in 20 ml organ baths under 0.75 g of tension and the isometric force generated by OA and urecholine (Frosst, Kirkland, QC) was measured using a Grass Force Displacement Transducer FT03 (Quincy, Mass.). […] Anti-anaphylactic properties of FEG and its analogues were determined by adding 10 ig of peptide to a bath and incubating for 10 min. […] OA contractile response was measured at peak contraction. […]

CD16b [2] = experiment: PAF induced CD16b expression on human neutrophils detected by CD16b.FITC; type: cell-based; details: 10-11M peptide; PAF 10^-9M (FIG. 11)
Experimental: as §1, §2, §3, §4

Sprague Dawley rats = experiment: Intestinal motility disturbances (MMC disruption) caused by intravenous endotoxin; type: in vivo, rat
Experimental: Intravenous injection of LPS at either 10 or 20 μg/kg disrupted the normal fasting pattern of intestinal MMCs into the characteristic fed pattern which persisted for 85±3 min (n=3) and 105±8 min (n=15), respectively. The disruptions in the MMCs developed within 20±4 min and 17±1 min for the respective 10 and 20 μg/kg doses of LPS. The 20 μg/kg dose of LPS was used for subsequent experiments.
Intestinal Motility. Male and female Sprague Dawley rats, weighing 200-250 g were raised at the Life and Environmental Sciences Animal Resource Centre, The University of Calgary. The rats were maintained with lights on from 7:00 to 19:00 h, and were provided food and water ad libitum. For the intestinal motility experiments lipopolysaccharide (LPS; Salmonella typhosa; Sigma Chemical Co., St. Louis, […].) was injected intravenously at a dose of 20 μg/kg (Helistrom et al, 1997).
For motility recording rats were surgically prepared, as previously described (Mathison et al, 1998), with three bipolar jejunal electrodes under halothane anesthesia following an 18 h fast. A plastic cannula, with three pairs of Teflon-coated stainless steel bipolar electrodes, was positioned in an intrascapular region. The wires were subcutaneously tunnelled to the anterior abdominal wall, entering the peritoneal cavity through a stab incision. […] An eight-channel chart recorder (Hewlett-Packard, model 7858A) simultaneously recorded the electric signals generated by the migrating myoelectric complexes (MMCs), for three cycles before and 120 min after intravenous challenge with 20 μg/kg of LPS. […]
Changes in intestinal motility were detected by modifications in jejunal myoelectric activity from the standard MMCs that occur in fasting animals to a totally disrupted pattern of intense, irregular myoelectric electricity that developed with the endotoxic reaction. Before and after challenge with LPS, the cycle period of MMCs was determined by measuring the time between the ends of phase III activity (the marked increase in regular phasic myoelectric and motor activity) of successive MMCs.

[3] = doses as low as 1 μg/kg; cited from earlier work
leukocytes = details: in vivo; cited from earlier work

With H-D-cha-D-glu-NH2 [(cha)e(NH2)] the “CD16b expression detected by CD16a.FITC” value (CD16b [1]) was “reduced”.
With H-D-cha-D-glu-OH [(cha)e] the “biological activity: inhibition of antigen induced contraction of the ileum” value (sensitized rat ileum) was “active” and the “CD16b expression detected by CD16b.FITC” value (CD16b [2]) was “reduced”.
With H-D-phe-D-glu-Gly-NH2 [feG(NH2)] the “inhibition of LPS induced disruption of the MMCs, dose response” value (Sprague Dawley rats; FIG. 3b) was “very potent” and the “CD16b expression detected by CD16a.FITC” value (CD16b [1]) was “reduced”.
In the case of TDIFEGG [SGP-T], the “duration of MMC disruption” value (Sprague Dawley rats; intravenous dose of 350 μg/kg) is given as “significantly reduced”, the “duration of LPS disrupted intestinal MMCs” value (Sprague Dawley rats; intravenous, 100 μg/kg, 20 min before LPS 20 μg/kg iv) is given as “ineffective” and the lipopolysaccharide induced hypotension [3] is given as “inhibits”. The “rolling of leukocytes on mesenteric venules induced by LPS and histamine” value (leukocytes) was “prevents”.
